Series [1] relates to M14 cells (malignant melanoma). Put plainly: Cellular cycle analysis of M14 cells by flow cytometry. It is filed as cell-based. The settings on record: for induction of cell accumulation in stage G1/S: 72 h, lowest dose (2.5 mcg/ml). The protocol: The cells have been resuspended in a concentration of 1×10^6/ml and incubated for different periods of time and with various doses of each substance. At the end of the incubation period the cells have been fixed in acetone/methanol 1:4, treated with 100 KU/ml of RNase and marked with propydium iodide (50 mcg/ml). The various stages of the cellular cycle have then been analyzed by means of flow cytometry with a cytometer FACscan using a suitable statistic program. […] Indeed, after only 24 h of cell incubation with C-Res and starting from a dose of 1.25 mcg/ml, a significant block of the cellular cycle on S/G2M level can be observed, with the consequent increase of the percentage of cells in S stage. Said block remains, at higher doses, constant for the following hours.
On the technique in general: A flow cytometer gives signals particle by particle.

The subject of series [2] is HT-29 cells (colorectal adenocarcinoma). Description: Apoptosis of HT-29 cells by flow cytofluorometry (PI DNA content). In kind it is cell-based. The settings on record: 5 mcg/ml, all times of incubation (24, 48, 72 h). On the procedure:
The cells have been resuspended in a concentration of 1×10^6/ml and incubated for different periods of time and with various doses of each substance. At the end of the incubation period the cells have been fixed in acetone/methanol 1:4, treated with 100 KU/ml of RNase and marked with propydium iodide (50 mcg/ml). The cells have then been analyzed by means of flow cytofluorometry using a cytometer FACscan. […] For all other doses an increase of the effect related to the time of incubation can be observed.

The subject of series [3] is M14 cells (malignant melanoma). Put plainly: Apoptosis of M14 cells by flow cytofluorometry (PI DNA content). It is filed as cell-based. On the procedure: The cells have been resuspended in a concentration of 1×10^6/ml and incubated for different periods of time and with various doses of each substance. At the end of the incubation period the cells have been fixed in acetone/methanol 1:4, treated with 100 KU/ml of RNase and marked with propydium iodide (50 mcg/ml). The cells have then been analyzed by means of flow cytofluorometry using a cytometer FACscan. […] Said effect is indeed particularly significant starting from a dose of 20 mcg/ml and the peak of activity can be observed after 48 h. An activity having a similar course is performed by C-Res on cell mortality (FIG. 3), even though for said parameter the percentages of cells reacting to the action of the drug are extremely higher.

Series [4] concerns PAR-MEL cells (malignant melanoma resisting to chemotherapeutic treatments). Description: Cellular cycle analysis of PAR-MEL cells by flow cytometry. It is filed as cell-based. The settings on record: after 24 h incubation. On the procedure:
The cells have been resuspended in a concentration of 1×10^6/ml and incubated for different periods of time and with various doses of each substance. At the end of the incubation period the cells have been fixed in acetone/methanol 1:4, treated with 100 KU/ml of RNase and marked with propydium iodide (50 mcg/ml). The various stages of the cellular cycle have then been analyzed by means of flow cytometry with a cytometer FACscan using a suitable statistic program. As far as the effects on the cellular cycle (FIG. 8) are concerned, after only 24 h of incubation of PAR-MEL cells with C-Res and starting from a dose of 5 mcg/ml, a significant block of the cellular cycle on G1-S/G2M level can be observed, with a consequent increase in the percentage of cells in S stage and at higher doses in G1 stage. Said block remains constant for the following hours.

For series [5], the system named is HT-29 cells (colorectal adenocarcinoma). Description: Cell mortality of HT-29 cells. It is filed as cell-based. The settings on record: all doses (5-40 mcg/ml). The protocol: The cells placed on a microplate in a concentration of 1×10^5/ml have been incubated with various doses of each substance and for different periods of time. At the end of the treatment cell mortality has been evaluated by a cellular count in trypan blue and/or by flow cytometry using a cytometer FACscan (Becton-Dickinson), determining the vitality of unfixed cells which have been marked with propydium iodide (PI). […] For all doses the peak of activity is detected after 48 hours of incubation.

For series [6] the test system is unchanged. Put plainly: Cell growth of HT-29 cells. In kind it is cell-based. The settings on record: until 72 hours. On the procedure:
(§1) During the experiments a series of cell lines originating from different types of tumors has been used. All cell lines have been grown and kept in a RPMI-1640 medium added with 10% fetal calf serum (FCS) and 1% penicillin-streptomycin. The substances according to the invention have been dissolved in dimethyl-sulfoxide (DMSO) at an initial concentration of 100 mM and added to the cell cultures in the concentrations indicated. DMSO alone has been added to control cultures. The cells placed on a microplate in a concentration of 1×10^5/ml have been incubated with various doses of each substance and for different periods of time. At the end of the treatment cell replication has been evaluated by a cellular count carried out using a Coulter Counter.

In series [7] the test system is PAR-MEL cells (malignant melanoma resisting to chemotherapeutic treatments). Put plainly: Apoptosis of PAR-MEL cells by flow cytofluorometry (PI DNA content). In kind it is cell-based. The settings on record: 40 mcg/ml, 72 h incubation. The protocol: The cells have been resuspended in a concentration of 1×10^6/ml and incubated for different periods of time and with various doses of each substance. At the end of the incubation period the cells have been fixed in acetone/methanol 1:4, treated with 100 KU/ml of RNase and marked with propydium iodide (50 mcg/ml). The cells have then been analyzed by means of flow cytofluorometry using a cytometer FACscan.

Series [8] has as its system HT-29 cells (colorectal adenocarcinoma). Put plainly: Cellular cycle analysis of HT-29 cells by flow cytometry. It is filed as cell-based. The settings on record: only after 48 h incubation. On the procedure: The cells have been resuspended in a concentration of 1×10^6/ml and incubated for different periods of time and with various doses of each substance. At the end of the incubation period the cells have been fixed in acetone/methanol 1:4, treated with 100 KU/ml of RNase and marked with propydium iodide (50 mcg/ml). The various stages of the cellular cycle have then been analyzed by means of flow cytometry with a cytometer FACscan using a suitable statistic program. For these cells the effects on the cellular cycle (FIG. 12) are evident only after 48 h of incubation starting from a dose of 10 mcg/ml and consist in a block of the cellular cycle on G1-S/G2M level.

In series [9] the test system is PAR-MEL cells (malignant melanoma resisting to chemotherapeutic treatments). Description: Cell replication of PAR-MEL cells. In kind it is cell-based. The protocol: as §1
Series [10] shares this test system. Description: Cell mortality of PAR-MEL cells. It is filed as cell-based. The settings on record: 40 mcg/ml. The protocol:
The cells placed on a microplate in a concentration of 1×10^5/ml have been incubated with various doses of each substance and for different periods of time. At the end of the treatment cell mortality has been evaluated by a cellular count in trypan blue and/or by flow cytometry using a cytometer FACscan (Becton-Dickinson), determining the vitality of unfixed cells which have been marked with propydium iodide (PI). […] Only for the dose of 40 mcg/ml the plateau is reached after only 24 h of incubation.

Series [11] can be described thus: Stability of the active agent in culture medium (HPLC/GC quantification). It is filed as physicochemical. The settings on record: for halving time in culture medium: culture medium of ex. 10 (RPMI-1640, 10% FCS); for amount still present at the end of the test: culture medium of ex. 10, 72 h. The protocol:
As far as resveratrols are concerned, they can be obtained with two alternative techniques, HPLC or GC. For both techniques quantification is carried out with the internal standard method. The compound we have found to be optimal is trans4-hydroxy-stilbene, commercially available.
For HPLC the reference method with reverse-phase column can be applied, with detection at 310 nm for trans isomers and at 282 for cis isomer (Mattivi F. Solid phase extraction of trans-resveratrol from wines for HPLC analysis. Zeftschrift für Lebensmittel-Untersuchung und Forschung, 1993, 196, 522-525). The instrumental conditions are the same as those described above for viniferine. The coefficient of molar extinction of both glucosides is almost the same as the one of the corresponding aglycones, so that they can be determined as such after carrying out a correction for molecular weights (Mattivi et al. Isolation, characterization, and evolution in red wine vinification of resveratrol monomers, J. Agric. Food Chem., 1995, 43, 7, 1820-1823).
If a preparation for aqueous or hydroalcoholic matrixes is necessary, the injection should be preceded by a pre-purification step on reverse-phase cartridges according to Mattivi F. Solid phase extraction of trans-resveratrol from wines for HPLC analysis. Zeitschrift für Lebensmittel-Untersuchung und Forschung, 1993, 196, 522-525. In addition to what is contained in the aforesaid document, it has been verified that the method is suitable for all monomer stilbenes, both free and glucosides, and that the eluted fraction of ethyl acetate can be dried under a mild flow of nitrogen, in case it is necessary to carry out the exchange in another solvent and/or to further reduce the limits of quantification.
Said techniques can be used for instance to control the stability of the active agent in culture mediums, and therefore to support in vitro experimental models which are going to be described in the following examples. For instance, for the culture means described in ex.
During the experiments a series of cell lines originating from different types of tumors has been used. All cell lines have been grown and kept in a RPMI-1640 medium added with 10% fetal calf serum (FCS) and 1% penicillin-streptomycin.

For series [12], the system named is M14 cells (malignant melanoma). Description: Cell replication of M14 cells (Coulter Counter count). The settings on record: for IC50: Homo sapiens, 72 h incubation, read-out: concentration inhibiting 50% of cell replication (CI50). It is filed as cell-based. On the procedure:
as §1, with “Counter. Cells belonging to the M14 tumor line (malignant melanoma) have been incubated for various periods of time with 1.25, 2.5, 5, 10, 20, 40 and 80 mcg/ml of cis-resveratrol (C-Res), or DMSO alone as far as controls are concerned.” for “Counter.”

≈ marks a conversion by molar mass, not a printed value.

For `Oc1ccc(/C=C\c2cc(O)cc(O)c2)cc1` [C-Res, cis-resveratrol], the “induction of cell accumulation in stage G1/S” value in [1] is reported as “could induce cell accumulation in stage G1/S”. The “dose from which significant block of the cellular cycle on S/G2M level is observed” value in series [1] (after 24 h incubation) is no less than 1.25 µg/mL. Further, in series [2], the “apoptosis (peaks of hypodiploidy)” value is reported as “absence of measurable peaks of hypodiploidy”. Besides, the “dose from which increase in apoptotic cells is particularly significant” value in series [3] was no less than 20 µg/mL. In addition, the “time of peak of apoptotic activity” value in [3] came to 48 h. Further, the “dose from which significant block of the cellular cycle on G1-S/G2M level is observed” value in series [4] is no less than 5 µg/mL. In series [5], the “time of peak of activity on cell mortality” value was 48 h. Further, the “inhibition of tumor growth” value in series [6] (5 and 10 mcg/ml) was “does not induce any significant effect”; in series [6] (20 mcg/ml) it was “partial”; in series [6] (40 mcg/ml), “complete”. This compound gave a cells in apoptosis in series [7] of 50%. Further, the “dose from which block of the cellular cycle on G1-S/G2M level is evident” value in series [8] is no less than 10 µg/mL. Moreover, the “effect on cell replication” value is listed as “cytotoxic activity” in [9] (dose 20 and 40 mcg/ml); “significant cytostatic activity” in [9] (dose range 5 and 10 mcg/ml); “cytotoxic activity” in series [12] (dose 40 mcg/ml); “significant cytostatic activity” in series [12] (dose range 5-20 mcg/ml). For the same compound, the “time at which plateau of cell mortality is reached” value in series [10] stood at 24 h. The “halving time in culture medium” value in series [11] is given as 38 h. Moreover, the “amount still present at the end of the test” value in series [11] is listed as “about 25%”. Besides, the IC50 in [12] was 2.7 µg/mL (≈ 11.8 µM). In series [12] (all tested doses (1.25-80 mcg/ml)), the “effect on cell growth” value is “can inhibit cell growth”.
On to `Oc1ccc(/C=C/c2cc(O)cc(O)c2)cc1` [T-Res, trans-resveratrol, reference compound], for which the “induction of cell accumulation in stage G1/S” value in [1] is on record as “not”. In series [11], the “halving time in culture medium” value is reported as 28 h and the “amount still present at the end of the test” value is on record as “not present as such”. The IC50 in series [12] was 31.6 µg/mL (≈ 138 µM).

The record behind these values is US20040052879A1, “Method for the extraction of pharmaceutically active products from spermatophyte plants, products thus obtained and their use in the medical field, in particular as substances with anti-tumoral activity” (priority 2000, published 2004).
